Reference: paper PMC9653995, “New Positive TRPC6 Modulator Penetrates Blood–Brain Barrier, Eliminates Synaptic Deficiency and Restores Memory Deficit in 5xFAD Mice” (International Journal of Molecular Sciences, 2022)

What was measured:
[1] = test system: hippocampal slices from 8-month-old 5xFAD mice; test: LTP induction (HFS) in hippocampal Schaffer collateral-CA1 synapses of brain slices, fEPSP recording; type: cell-based, mouse; details: 100 nM, normalized to baseline, mean ± SEM
Protocol: Long-term potentiation (LTP) is considered a cellular mechanism for long-term memory. LTP deficits have been reported in AD mouse models including 5xFAD mice. We examined whether C20 could improve synaptic plasticity in hippocampal slices of 5xFAD mice. LTP was induced in hippocampal Schaffer collateral-CA1 synapses by high-frequency stimulation (HFS).
Mouse transcardial perfusion was performed with 0–2 °C of holding buffer containing (in mM): 124 NaCl, 2.5 KCl, 24 NaHCO3, 1.2 NaH2PO4, 5 HEPES, 0.5 CaCl2*2H2O, 10 MgCl2*7H2O, 3 Na-pyruvate, and 12.5 D-glucose. […]
After incubation, the slices were placed in a recording chamber and perfused with a constant flow of recording buffer saturated with carbogen. […] Field excitatory postsynaptic potentials (fEPSPs) were recorded from CA1 stratum radiatum in recording buffer (124 mM NaCl, 2.5 mM KCl, 24 mM NaHCO3, 1.2 mM NaH2PO4, 5 mM HEPES, 2 mM CaCl2*2H2O, 0.8 mM MgCl2*7H2O, and 12.5 mM D-glucose) using borosilicate glass microelectrodes (300–400 kΩ) filled with recording buffer. […] Electrophysiological field responses were amplified and controlled using a Multiclamp 700B (Molecular Devices, Sunnyvale, CA, USA), digitized by Digidata 1440A (Molecular Devices, USA) and analyzed by pClamp 10.6 (Axon Instruments, Union City, California, USA). […] The amplitude and slope of the rising phase of EPSP at a level of 20–80% of the peak amplitude were measured. […]

[2] = In vivo pharmacokinetics in plasma and brain after single i.p. injection; set-up: species or system CD-1 mice; details: mice, 10 mg/kg i.p.
Protocol: Two-month-old CD-1 mice (males) were used for pharmacokinetic studies. CD-1 mice were obtained from Charles River GmbH and housed in the laboratory of bioanalytics of the ChemRar research institute. The number of animals in the study was kept at a minimum in terms of ethical principles and regulatory requirements.
The study was carried out on 20 mice. Five animals constituted the control group, which were not injected with the C20 substance. The remaining 15 animals were divided into 5 groups of 3 animals per time point. At least 12 h before the start of the experiment, the animals were deprived of food with free access to water.
All 15 animals from the experimental groups underwent a single intraperitoneal injection of the C20 formulation at a dose of 10 mg/kg (formulation containing 10% ethanol). After 0.25, 0.5, 1, 2, and 4 h, CO2 euthanasia was performed in each group of animals in accordance with the time point. Blood plasma and brain samples were obtained.
Blood was collected by cardiopuncture in a volume of 0.2 mL into polypropylene tubes containing 20 μL of 5% EDTA. Blood plasma was separated by centrifugation at 10,000 rpm for 10 min.
Pharmacokinetic analysis was performed by a non-compartmental method using the Phoenix WinNonlin 6.3 software package (Pharsight Corporation, Mountain View, CA, USA) and in accordance with SOP-BL-AN-027 “Calculation and analysis of parameters of pharmacokinetic and toxicokinetic studies. Statistical processing of results”.
Analysis of pharmacokinetic parameters was performed using averaged pharmacokinetic curves in the plasma and brain. The main pharmacokinetic parameters were determined:
The intensity of C20 penetration into the brain was assessed in terms of tissue availability (ft):(1) ft=AUCt/AUCk, where AUCt is the area under the pharmacokinetic curve in the tissue; AUCk is the area under the pharmacokinetic curve in blood plasma.

TRPC3 = details: cited from earlier work

Structure (SMILES): COc1cc2c(cc1OC)C(c1cc3ccccc3oc1=O)=NC(C)(C)C2 [C20, 3-(3-,4-Dihydro-6,7-dimethoxy-3,3-dimethyl-1-isoquinolinyl)-2H-1-benzopyran-2-one]
- average fEPSP slope 30–40 min after HFS ([1]; 8-month-old 5xFAD slices, 5xFAD alone 115.5 ± 3.0%): 149.4 ± 9.7%
- average fEPSP slope 30–40 min after HFS ([1]; WT slices, WT alone 168.7 ± 4.8%): 161.4 ± 9.6%
- concentration in brain samples after 4 h [2]: 10 ng/g
- half-life (t1/2) of elimination from plasma [2]: 31.2 min
- half-life (t1/2) of excretion from the brain [2]: 44.4 min
- maximum concentration in plasma ([2]; formulation with 10% ethanol): 789 ng/mL
- time of maximum concentration (plasma and brain) ([2]; first sampling point): 15 min
- index of tissue availability in the brain (ft) in relation to blood plasma ([2]; ft = AUCt/AUCk): 1.05
- activation of TRPC3 (TRPC3): does not activate TRPC3
